Results published in DBAASP.
Values after ≈ are worked out from the molar mass of the structure shown. Values joined by “and” are separate entries in the source; they are usually repeats but may differ in a detail not shown here. Equal values may be shown once.

Columns and labels:
Assay in all cases: ≥ marks a high value that may be exact or a test limit, other limits are often not marked, values filed in µg/mL are converted to µM
[1] = test system: Staphylococcus saprophyticus M2981
[2] = test system: Pseudomonas aeruginosa PACO12
[3] = test system: Staphylococcus epidermidis M2923
[4] = test system: Staphylococcus saprophyticus M4070
[5] = test system: Staphylococcus aureus ATCC 25923
[6] = test system: Staphylococcus aureus P204
[7] = test system: Enterococcus faecium M2664
[8] = test system: Enterococcus faecalis ATCC 29212
[9] = test system: Enterococcus faecalis M6534
Escherichia coli M9884 = test system: Escherichia coli M9884
Staphylococcus warneri = test system: Staphylococcus warneri
[10] = test system: Klebsiella pneumoniae M5825
[11] = test system: Staphylococcus aureus P33
[12] = test system: Enterococcus faecium PZAP 95
[13] = test system: Staphylococcus haemolyticus M2976
[14] = test system: Escherichia coli ATCC 25922
Acinetobacter sp. M9013 = test system: Acinetobacter sp. M9013
[15] = test system: Enterococcus gallinarum M2723
[16] = test system: Enterococcus faecalis ATCC 51299
[17] = test system: Staphylococcus epidermidis M2921
Acinetobacter sp. M13523 = test system: Acinetobacter sp. M13523
Escherichia coli PCOS 15 = test system: Escherichia coli PCOS 15
[18] = test system: Enterococcus gallinarum M2685
[19] = test system: Enterococcus faecalis M4899
Staphylococcus cohnii = test system: Staphylococcus cohnii
Escherichia coli M5306 = test system: Escherichia coli M5306
[20] = test system: Staphylococcus hominis M2973
Acinetobacter sp. M5949 = test system: Acinetobacter sp. M5949
Acinetobacter sp. M9665 = test system: Acinetobacter sp. M9665
[21] = test system: Klebsiella pneumoniae M9491
[22] = test system: Pseudomonas aeruginosa ATCC 27853
[23] = test system: Staphylococcus hominis M2967
[24] = test system: Klebsiella pneumoniae M13540
[25] = test system: Staphylococcus aureus M6784
[26] = test system: Klebsiella pneumoniae PFAV 3
[27] = test system: Klebsiella pneumoniae M9170
[28] = test system: Staphylococcus aureus ATCC BAA-39
[29] = test system: Staphylococcus aureus ATCC 43300
[30] = test system: Listeria monocytogenes ATCC 19115
[31] = test system: Klebsiella pneumoniae ATCC 13883
[32] = test system: Salmonella enterica subsp. enterica serovar Enteritidis ATCC 13076
[33] = test system: Candida albicans ATCC 37092
[34] = test system: Staphylococcus aureus ATCC 29213
[35] = test system: Bacillus subtilis KCTC 3068
[36] = test system: Staphylococcus epidermidis KCTC 1917
[37] = test system: Staphylococcus aureus CCARM 3089
[38] = test system: Staphylococcus aureus CCARM 3114
[39] = test system: Salmonella typhimurium KCTC 1926
[40] = test system: Escherichia coli CCARM 1229
[41] = test system: Escherichia coli KCTC 1682
[42] = test system: Escherichia coli CCARM 1238
[43] = test system: Staphylococcus aureus KCTC 1621
[44] = test system: Pseudomonas aeruginosa KCTC 1637
[45] = test system: Salmonella typhimurium CCARM 8003

For `CC[C@H](C)[C@H](NC(=O)[C@H](CCCN=C(N)N)NC(=O)[C@H](CCCCN)NC(=O)[C@H](Cc1ccccc1)NC(=O)[C@H](CCC(=O)O)NC(=O)[C@H](CCCCN)NC(=O)[C@H](Cc1c[nH]c2ccccc12)NC(=O)[C@H](CCCCN)NC(=O)[C@H](CCCCN)NC(=O)[C@H](CC(C)C)NC(=O)[C@H](Cc1c[nH]c2ccccc12)NC(=O)[C@H](CCCCN)NC(=O)[C@H](CCCCN)NC(=O)[C@H](CC(C)C)NC(=O)[C@H](CC(C)C)NC(=O)CN)C(=O)N[C@H](C(=O)NCC(=O)N[C@@H](Cc1ccc(O)cc1)C(N)=O)C(C)C` [GLLKKWLKKWKEFKRIVGY], the MIC [1] was 3.3 µM (≈ 8 µg/mL), the MIC [2] was 26.4 µM (≈ 64 µg/mL) and the MIC [3] was 6.61 µM (≈ 16 µg/mL). It also gave an MIC [4] of 13.2 µM (≈ 32 µg/mL), an MIC [5] of 26.4 µM (≈ 64 µg/mL) and an MIC [6] of 26.4 µM (≈ 64 µg/mL). The MIC [7] was 3.3 µM (≈ 8 µg/mL), the MIC [8] was 52.9 µM (≈ 128 µg/mL) and the MIC [9] was ≥ 106 µM. The MIC (Escherichia coli M9884) was 13.2 µM (≈ 32 µg/mL), the MIC (Staphylococcus warneri) was 3.3 µM (≈ 8 µg/mL) and the MIC [10] was 3.3 µM (≈ 8 µg/mL). The MIC [11] was ≥ 52.9 µM, the MIC [12] was 6.61 µM (≈ 16 µg/mL) and the MIC [13] was 3.3 µM (≈ 8 µg/mL). It also gave an MIC [14] of 13.2 µM (≈ 32 µg/mL), an MIC (Acinetobacter sp. M9013) of 3.3 µM (≈ 8 µg/mL) and an MIC [15] of 13.2 µM (≈ 32 µg/mL). For the same molecule, the MIC [16] was ≥ 106 µM, the MIC [17] was 3.3 µM (≈ 8 µg/mL) and the MIC (Acinetobacter sp. M13523) was 1.65 µM (≈ 4 µg/mL). The MIC (Escherichia coli PCOS 15) was 26.4 µM (≈ 64 µg/mL), the MIC [18] was 6.61 µM (≈ 16 µg/mL) and the MIC [19] was ≥ 52.9 µM. The MIC (Staphylococcus cohnii) was 6.61 µM (≈ 16 µg/mL), the MIC (Escherichia coli M5306) was 1.65 µM (≈ 4 µg/mL) and the MIC [20] was 1.65 µM (≈ 4 µg/mL). It also gave an MIC (Acinetobacter sp. M5949) of 6.61 µM (≈ 16 µg/mL), an MIC (Acinetobacter sp. M9665) of 13.2 µM (≈ 32 µg/mL) and an MIC [21] of 26.4 µM (≈ 64 µg/mL). The MIC [22] was 26.4 µM (≈ 64 µg/mL), the MIC [23] was 3.3 µM (≈ 8 µg/mL) and the MIC [24] was 6.61 µM (≈ 16 µg/mL). For the same molecule, the MIC [25] was 13.2 µM (≈ 32 µg/mL), the MIC [26] was ≥ 52.9 µM and the MIC [27] was 13.2 µM (≈ 32 µg/mL).

For `CC[C@H](C)[C@H](NC(=O)[C@H](CCCCN)NC(=O)[C@H](CCCN=C(N)N)NC(=O)[C@H](CC(C)C)NC(=O)[C@H](Cc1ccccc1)NC(=O)[C@H](CCCN=C(N)N)NC(=O)CNC(=O)[C@H](Cc1ccccc1)NC(=O)[C@H](CCCN=C(N)N)NC(=O)CNC(=O)[C@H](CCCN=C(N)N)NC(=O)[C@H](CCC(N)=O)NC(=O)[C@@H](NC(=O)[C@@H](N)CC(C)C)C(C)C)C(=O)O` [LVQRGRFGRFLRKI], the MIC [28] was ≥ 32 µM, the MIC [5] was 11.3 µM and 32 µM and the MIC [14] was 22.6 µM and 32 µM. For the same molecule, the MIC [29] was 32 µM (≈ 55.9 µg/mL), the MIC [30] was 22.6 µM and ≥ 32 µM and the MIC [31] was 16 µM and ≥ 32 µM. The MIC [32] was 16 µM (≈ 27.9 µg/mL).

With `CC(C)C[C@H](NC(=O)[C@@H](N)CCCN=C(N)N)C(=O)N1CCC[C@H]1C(=O)N[C@@H](CCCN=C(N)N)C(=O)N1CCC[C@H]1C(=O)N[C@@H](CCCN=C(N)N)C(=O)N1CCC[C@H]1C(=O)N[C@@H](CCCN=C(N)N)C(=O)N1CCC[C@H]1C(=O)N[C@@H](CC(C)C)C(=O)N1CCC[C@H]1C(=O)N[C@@H](Cc1ccccc1)C(=O)N1CCC[C@H]1C(=O)N[C@@H](CCCN=C(N)N)C(=O)N1CCC[C@H]1C(=O)NCC(=O)O` [RLPRPRPRPLPFPRPG] the MIC [14] was 114 µM (≈ 218 µg/mL), the MIC [33] was ≥ 500 µM and the MIC [34] was > 500 µM.

`CC[C@H](C)[C@H](NC(=O)[C@H](C)NC(=O)[C@H](CC(C)C)NC(=O)[C@H](Cc1c[nH]c2ccccc12)NC(=O)[C@H](CC(C)C)NC(=O)[C@@H](N)CCCN=C(N)N)C(=O)NCC(=O)N[C@@H](CCCN=C(N)N)C(=O)NCC(N)=O` [RLWLAIGRG] showed an MIC [35] of 8 µM (≈ 8.32 µg/mL), an MIC [36] of 4 µM (≈ 4.16 µg/mL) and an MIC [37] of 16 µM (≈ 16.6 µg/mL). The MIC [38] was ≥ 32 µM, the MIC [39] was ≥ 32 µM and the MIC [40] was 16 µM (≈ 16.6 µg/mL). For the same molecule, the MIC [41] was 8 µM (≈ 8.32 µg/mL), the MIC [42] was 8 µM (≈ 8.32 µg/mL) and the MIC [43] was 16 µM (≈ 16.6 µg/mL). For the same molecule, the MIC [44] was ≥ 32 µM and the MIC [45] was ≥ 32 µM.
